Assays:
Test in all cases: relative viability (nuclei count vs DMSO), 5 days (fraction); higher = more cells survive
Bleomycin + Dasatinib = compound: CC1=C(N=C(N=C1N)[C@H](CC(=O)N)NC[C@@H](C(=O)N)N)C(=O)N[C@@H]([C@H](C2=CN=CN2)OC3C(C(C(C(O3)CO)O)O)OC4C(C(C(C(O4)CO)O)OC(=O)N)O)C(=O)N[C@H](C)[C@H]([C@H](C)C(=O)N[C@@H]([C@@H](C)O)C(=O)NCCC5=NC(=CS5)C6=NC(=CS6)C(=O)NCCC[S+](C)C)O [Bleomycin] + Cc1nc(Nc2ncc(C(=O)Nc3c(C)cccc3Cl)s2)cc(N2CCN(CCO)CC2)n1 [Dasatinib] (partner 0.075 µM); settings: main component drawn
Procedure, shortened: (§1)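 Lung cancer cell lines were seeded in 1536-well plates and dosed by pin tool the next day, with either a single drug or a fixed anchor-drug dose combined with five library-drug doses (not always all listed) spaced in √10 steps. Five days later, one step fixed the cells and stained their nuclei (final 0.05% Triton X-100, 1% formaldehyde, 1 ug/ml Hoechst), and nuclei were counted on 4× images. Relative viability is the nuclei count in treated wells divided by the count in vehicle wells, and each value is the median of duplicate plates.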

Bleomycin + Trametinib = compound: CC1=C(N=C(N=C1N)[C@H](CC(=O)N)NC[C@@H](C(=O)N)N)C(=O)N[C@@H]([C@H](C2=CN=CN2)OC3C(C(C(C(O3)CO)O)O)OC4C(C(C(C(O4)CO)O)OC(=O)N)O)C(=O)N[C@H](C)[C@H]([C@H](C)C(=O)N[C@@H]([C@@H](C)O)C(=O)NCCC5=NC(=CS5)C6=NC(=CS6)C(=O)NCCC[S+](C)C)O [Bleomycin] + CC(=O)Nc1cccc(-n2c(=O)n(C3CC3)c(=O)c3c(Nc4ccc(I)cc4F)n(C)c(=O)c(C)c32)c1 [Trametinib] (partner 0.02 µM); settings: main component drawn
Procedure, shortened: as §1

Etoposide + Pictilisib = compound: COc1cc([C@@H]2c3cc4c(cc3[C@@H](O[C@@H]3O[C@@H]5CO[C@@H](C)O[C@H]5[C@H](O)[C@H]3O)[C@H]3COC(=O)[C@H]23)OCO4)cc(OC)c1O [Etoposide] + CS(=O)(=O)N1CCN(Cc2cc3nc(-c4cccc5[nH]ncc45)nc(N4CCOCC4)c3s2)CC1 [Pictilisib] (partner 1 µM)
Procedure, shortened: as §1

Etoposide + OSI-027 = compound: COc1cc([C@@H]2c3cc4c(cc3[C@@H](O[C@@H]3O[C@@H]5CO[C@@H](C)O[C@H]5[C@H](O)[C@H]3O)[C@H]3COC(=O)[C@H]23)OCO4)cc(OC)c1O [Etoposide] + COc1cccc2cc(-c3nc([C@H]4CC[C@H](C(=O)O)CC4)n4ncnc(N)c34)[nH]c12 [OSI-027] (partner 0.5 µM)
Procedure, shortened: as §1

Question: For UMC-11, which relative viability (Bleomycin + Dasatinib; first compound 0.01 µM) is on record?
Answer: 0.448

Question: What about the relative viability (Bleomycin + Dasatinib; first compound 0.03162 µM) of the same cell line?
Answer: 0.511

Question: And the relative viability (Bleomycin + Dasatinib; first compound 0.1 µM)?
Answer: 0.495

Question: And the relative viability (Bleomycin + Dasatinib; first compound 0.3162 µM)?
Answer: 0.385

Question: What about the relative viability (Bleomycin + Dasatinib; first compound 1 µM) of the same cell line?
Answer: 0.328

Question: What about the relative viability (Bleomycin + Trametinib; first compound 0.01 µM) of the same cell line?
Answer: 0.653

Question: What about the relative viability (Bleomycin + Trametinib; first compound 0.03162 µM) of the same cell line?
Answer: 0.652

Question: And the relative viability (Bleomycin + Trametinib; first compound 0.1 µM)?
Answer: 0.774

Question: And the relative viability (Bleomycin + Trametinib; first compound 0.3162 µM)?
Answer: 0.632

Question: And the relative viability (Bleomycin + Trametinib; first compound 1 µM)?
Answer: 0.345

Question: And the relative viability (Etoposide + Pictilisib; first compound 0.01 µM)?
Answer: 0.837

Question: And the relative viability (Etoposide + Pictilisib; first compound 0.03162 µM)?
Answer: 0.938

Question: And the relative viability (Etoposide + Pictilisib; first compound 0.3162 µM)?
Answer: 0.339

Question: What about the relative viability (Etoposide + Pictilisib; first compound 1 µM) of the same cell line?
Answer: 0.194

Question: And the relative viability (Etoposide + OSI-027; first compound 0.01 µM)?
Answer: 0.443

Question: What about the relative viability (Etoposide + OSI-027; first compound 0.03162 µM) of the same cell line?
Answer: 0.544

Question: What about the relative viability (Etoposide + OSI-027; first compound 0.1 µM) of the same cell line?
Answer: 0.299

Question: And the relative viability (Etoposide + OSI-027; first compound 0.3162 µM)?
Answer: 0.431

Question: And the relative viability (Etoposide + OSI-027; first compound 1 µM)?
Answer: 0.3
